Laboratory results published in patent publication US20250205270A1, “ANTIBODY-DRUG CONJUGATE PRECURSORS COMPRISING A CYCLIC DINUCLEOTIDE” (TAKEDA PHARMACEUTICAL COMPANY LIMITED, priority 2016, published 2025).
Structures can show the parent of a compound that is named as a salt. Where two headings read alike, the source gives them in different places.

What was measured:
[1] = Human plasma stability assay; format: in vitro ADME; settings: 37° C., 0-24 hours, LC/MS/MS
Method: The compound was incubated in heparinized human plasma at 37° C. for 0, 1, 2, 4, 8 and 24 hours, and the change in compound concentration was measured by LC/MS/MS method. The elimination rate constant (=k(/h)) was calculated based on the fitted curve assuming the exponential decrease of concentration as follows; concentration at time x=initial concentration*exp(−k*x).

[2] = tested on: B16F10 syngeneic mice model; experiment: Syngeneic tumor model, anti-tumor effect, B16F10; format: in vivo, mouse; settings: C57BL/6 mice; intravenous, every 3 days, 3 times; Ex3a 30 mg/kg, Ex14 1.0 mg/kg
Method: (§1) Ex14 and Ex3a were tested in syngeneic tumor models in mice. […] See FIG. 8 and FIG. 9 for the anti-tumor effect colon carcinoma CT-26 syngeneic mice model, and FIG. 10 and FIG. 11 for the anti-tumor effect in the […] B16F10 syngeneic mice model.
(§2) 8×10^4 B16F10 and 2×10^5 CT-26 mouse tumor cells were subcutaneously implanted in the flank of female C57BL/6 (B16F10) and Balb/C (CT-26) mice (n=7 per group). Vehicle (1×PBS), compound Ex3a (30 mg/kg) or Ex14 (1.0 mg/kg) were intravenously administered (final volume of 100 μL) to tumor-bearing mice once the tumor volume has reached 100 mm^3 (Day 0). Vehicle, Ex3a or Ex14 were given every 3 days for a total of 3 doses (q3dx3). Tumor and body weight measurements were taken three times per week using vernier calipers and mettler scale, respectively. Tumor volumes were determined by multiplying the square of the width (‘W’), measured along the short axis of the tumor, by one-half the length (‘L’) measured along the […]

[3] = tested on: THP1-Dual cells (ISG54 promoter Lucia luciferase reporter); experiment: THP-1 Dual Lucia reporter gene assay; format: cell-based, human; settings: 20 hours incubation, read-out: THP-1 Dual cell EC50 (μM) Reporter
Method: THP1-Dual™ cells (InvivoGen #thpd-nfis) were derived from the human THP-1 monocyte cell line by stable integration of the Lucia luciferase gene, a secreted luciferase reporter gene, under the control of an ISG54 (interferon-stimulated gene) minimal promoter in conjunction with five interferon (IFN)-stimulated response elements. On the day of experiment, the cells were plated to a black, 384-well plate (Corning 356697) at 7500 cells/25 μL per well density in growth media (RPMI 1640, 2 mM L-glutamine, 25 mM HEPES, 10% heat-inactivated fetal bovine serum, 100 μg/mL Normocin™, 100 U/mL-100 μg/mL Pen-Strep, 10 μg/mL of blasticidin, and 100 μg/mL of Zeocin). The cell plates were dosed with 62.5 nL of the testing compounds, and then incubated at 37° C. for 20 hours. At the end of the incubation, 15 μL/well of the QUANTI-Luc™ (InvivoGen #rep-qlc1) were added, and luminescence was measured immediately using the LeadSeeker.

WT STING = WT STING (Homo sapiens (Human), UniProt Q86WV6, H232R); format: cell-based
[4] = tested on: colon carcinoma CT-26 syngeneic mice model; experiment: Syngeneic tumor model, anti-tumor effect, CT-26; format: in vivo, mouse; settings: Balb/C mice; intravenous, every 3 days, 3 times; Ex3a 30 mg/kg, Ex14 1.0 mg/kg
Method: as §1, §2

[5] = tested on: phosphorylated IRF3 protein in FaDu cell; experiment: Phosphorylated IRF3 protein detection in FaDu cell; format: cell-based, human; settings: at 30 μM; 6 hr; 2′,3′-cGAMP 30 μM = 100%
Method: Human larynx cancer cell line FaDu cell (ATCC) was seeded, the medium was replaced with serum free medium one day after the seeding. After the replacement, the cell was cultured for one day, and to the cell were added the natural ligand 2′,3′-cGAMIP (the final concentration; 30 μM) and test compound (the final concentration; 15 μM or 30 μM). 6 hr after the addition, the cell was washed with PBS, the cell extract was prepared, and the phosphorylated IRF3 protein was detected by ELISA method or Western blotting method. The IRF3 protein phosphorylation activity of the test compound was calculated when the value in the sample with adding the natural ligand 2′,3′-cGAMP at the final concentration of 30 μM was considered as 100%.

Sequence of WT STING (Q86WV6 whole entry H232R): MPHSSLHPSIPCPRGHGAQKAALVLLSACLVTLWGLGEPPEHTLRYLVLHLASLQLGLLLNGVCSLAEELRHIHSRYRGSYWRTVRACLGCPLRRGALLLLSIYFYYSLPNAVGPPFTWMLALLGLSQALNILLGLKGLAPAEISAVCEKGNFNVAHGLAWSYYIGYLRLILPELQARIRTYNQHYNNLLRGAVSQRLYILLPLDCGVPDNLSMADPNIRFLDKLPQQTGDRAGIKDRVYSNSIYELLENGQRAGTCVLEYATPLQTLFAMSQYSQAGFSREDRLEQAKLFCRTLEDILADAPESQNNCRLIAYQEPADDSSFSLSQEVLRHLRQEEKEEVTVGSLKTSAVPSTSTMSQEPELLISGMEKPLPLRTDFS

Structure (SMILES) | Human plasma stability (/h), elimination rate constant k [1] [h⁻¹] | activity level of test compound, IRF3 protein phosphorylation test [5] [% at 30 μM] | activity level against WT STING of test compound (30 μM) (WT STING) [%] | other results
Nc1ncnc2c1ncn2[C@@H]1O[C@@H]2COP(=O)(O)O[C@@H]3[C@H](O)[C@@H](COP(=O)(S)O[C@H]2[C@H]1F)O[C@H]3n1cc(F)c2c(=O)[nH]cnc21 (stereo partly drawn) [Example 3a, 7-((2R,5R,7R,8R,12aR,14R,15R,15aR,16R)-14-(6-amino-9H-purin-9-yl)-15-fluoro-10,16-dihydroxy-2,10-dioxido-2-sulfanyloctahydro-12H-5,8-methanofuro[3,2-1][1,3,6,9,11,2,10]pentaoxadiphosphacyclotetradecin-7-yl)-5-fluoro-3,7-dihydro-4H-pyrrolo[2,3-d]pyrimidin-4-one Disodium Salt] | 0.58 | – | – | anti-tumor effect (tumor volume) [2]: anti-tumor effects were observed; EC50 ([3]; Homo sapiens, THP1-Dual): 5.6 µM; EC50 (WT STING; with digitonin, read-out: STING-293T cell EC50 (μM) Reporter with digitonin (B)): 0.13 µM; anti-tumor effect (tumor volume) [4]: anti-tumor effects were observed
Nc1ncnc2c1ncn2[C@@H]1O[C@@H]2COP(=O)(O)O[C@@H]3[C@H](O)[C@@H](COP(=O)(S)O[C@H]2[C@H]1F)O[C@H]3n1cc(F)c2c(=O)[nH]cnc21 (stereo partly drawn) [Example 3, 7-((2R,5R,7R,8R,12aR,14R,15R,15aR,16R)-14-(6-amino-9H-purin-9-yl)-15-fluoro-10,16-dihydroxy-2,10-dioxido-2-sulfanyloctahydro-12H-5,8-methanofuro[3,2-1][1,3,6,9,11,2,10]pentaoxadiphosphacyclotetradecin-7-yl)-5-fluoro-3,7-dihydro-4H-pyrrolo[2,3-d]pyrimidin-4-one 1.7 Triethylamine Salt] | – | 464.6 | – | –
Nc1ncnc2c1ncn2[C@@H]1O[C@@H]2COP(=O)(S)O[C@@H]3[C@H](O)[C@@H](COP(=O)(S)O[C@H]2[C@H]1F)O[C@H]3n1cc(F)c2c(=O)[nH]cnc21 (stereo partly drawn) [Example 14, 7-((2R,5R,7R,8R,10R,12aR,14R,15R,15aR,16R)-14-(6-amino-9H-purin-9-yl)-15-fluoro-16-hydroxy-2,10-dioxido-2,10-disulfanyloctahydro-12H-5,8-methanofuro[3,2-1][1,3,6,9,11,2,10]pentaoxadiphosphacyclotetradecin-7-yl)-5-fluoro-3,7-dihydro-4H-pyrrolo[2,3-d]pyrimidin-4-one Disodium Salt] | <0.01 | – | – | anti-tumor effect (tumor volume) [2]: anti-tumor effects were observed; anti-tumor effect (tumor volume) [4]: anti-tumor effects were observed
Nc1ncnc2c1ncn2[C@@H]1O[C@@H]2COP(=O)(O)O[C@@H]3[C@H](O)[C@@H](COP(=O)(O)O[C@H]2[C@H]1F)O[C@H]3n1cc(F)c2c(=O)[nH]cnc21 [Example 1, 7-((5R,7R,8R,12aR,14R,15R,15aR,16R)-14-(6-amino-9H-purin-9-yl)-15-fluoro-2,10,16-trihydroxy-2,10-dioxidooctahydro-12H-5,8-methanofuro[3,2-1][1,3,6,9,11,2,10]pentaoxadiphosphacyclotetradecin-7-yl)-5-fluoro-3,7-dihydro-4H-pyrrolo[2,3-d]pyrimidin-4-one di-triethylamine Salt] | – | 468.8 | – | –
Nc1nc2c(ncn2[C@@H]2O[C@@H]3COP(=O)(O)O[C@@H]4[C@H](O)[C@@H](COP(=O)(O)O[C@H]3[C@H]2F)O[C@H]4n2cc(F)c3c(=O)[nH]cnc32)c(=O)[nH]1 [Example 19, 2-amino-9-((5R,7R,8R,12aR,14R,15R,15aR,16R)-15-fluoro-7-(5-fluoro-4-oxo-3,4-dihydro-7H-pyrrolo[2,3-d]pyrimidin-7-yl)-2,10,16-trihydroxy-2,10-dioxidooctahydro-12H-5,8-methanofuro[3,2-1][1,3,6,9,11,2,10]pentaoxadiphosphacyclotetradecin-14-yl)-1,9-dihydro-6H-purin-6-one di-triethylamine Salt] | – | – | 101 | –
Nc1ncnc2c1ncn2[C@@H]1O[C@@H]2COP(=O)(O)O[C@@H]3[C@H](O)[C@@H](COP(=O)(S)O[C@H]2[C@H]1F)O[C@H]3n1cc(F)c2c(=O)[nH]cnc21 (stereo partly drawn) [Example 2, 7-((5R,7R,8R,12aR,14R,15R,15aR,16R)-14-(6-amino-9H-purin-9-yl)-15-fluoro-10,16-dihydroxy-2,10-dioxido-2-sulfanyloctahydro-12H-5,8-methanofuro[3,2-1][1,3,6,9,11,2,10]pentaoxadiphosphacyclotetradecin-7-yl)-5-fluoro-3,7-dihydro-4H-pyrrolo[2,3-d]pyrimidin-4-one di-triethylamine Salt (Optical Isomer)] | – | 88.7 | 112 | –
Nc1ncnc2c1ncn2[C@@H]1O[C@@H]2COP(=O)(S)O[C@@H]3[C@H](O)[C@@H](COP(=O)(S)O[C@H]2[C@H]1O)O[C@H]3n1cc(F)c2c(=O)[nH]cnc21 (stereo partly drawn) [Example 5, 7-((5R,7R,8R,12aR,14R,15R,15aS,16R)-14-(6-amino-9H-purin-9-yl)-15,16-dihydroxy-2,10-dioxido-2,10-disulfanyloctahydro-12H-5,8-methanofuro[3,2-1][1,3,6,9,11,2,10]pentaoxadiphosphacyclotetradecin-7-yl)-5-fluoro-3,7-dihydro-4H-pyrrolo[2,3-d]pyrimidin-4-one di-triethylamine Salt (Optical Isomer)] | <0.01 | 117.4 | – | –
Nc1nc2c(ncn2[C@@H]2O[C@@H]3COP(=O)(O)O[C@H]4[C@@H](O)[C@H](n5cnc6c(N)ncnc65)O[C@@H]4COP(=O)(O)O[C@@H]2[C@@H]3O)c(=O)[nH]1 [cGAMP, 2′,3′-cGAMP, reference compound] | 1.39 | – | – | EC50 [3]: 18 µM
Nc1nc2c(ncn2[C@@H]2O[C@@H]3COP(=O)(O)O[C@H]4[C@@H](O)[C@H](c5cnn6c(N)ncnc56)O[C@@H]4COP(=O)(O)O[C@@H]2[C@@H]3O)c(=O)[nH]1 [Example 13, 2-amino-9-((5R,7R,8R,12aR,14S,15S,15aS,16R)-14-(4-aminopyrazolo[1,5-a][1,3,5]triazin-8-yl)-2,10,15,16-tetrahydroxy-2,10-dioxidooctahydro-12H-5,8-methanofuro[3,2-1][1,3,6,9,11,2,10]pentaoxadiphosphacyclotetradecin-7-yl)-1,9-dihydro-6H-purin-6-one di-triethylamine Salt] | – | – | 99 | –
Nc1ncnc2c1ncn2[C@@H]1O[C@@]23CO[C@@H]1[C@@H]2OP(=O)(S)OC[C@H]1O[C@@H](n2cc(F)c4c(=O)[nH]cnc42)[C@H](OP(=O)(O)OC3)[C@@H]1O (stereo partly drawn) [Example 17, 7-((5R,7R,8R,12aR,14R,15R,15aS,18R)-14-(6-amino-9H-purin-9-yl)-10,18-dihydroxy-2,10-dioxido-2-sulfanylhexahydro-14H-15,12a-(epoxymethano)-5,8-methanofuro[3,2-1][1,3,6,9,11,2,10]pentaoxadiphosphacyclotetradecin-7(12H)-yl)-5-fluoro-3,7-dihydro-4H-pyrrolo[2,3-d]pyrimidin-4-one di-triethylamine Salt] | – | – | 110 | –
